# Measured values reported in US10752624B2, “Kinase inhibitors” (Origenis GmbH, priority 2012, dated 2020).
# Target: LRRK2 (Homo sapiens, UniProt Q5S007)
# Experiment: LRRK2-LRRK2 G2019S-Assay (LanthaScreen Eu Kinase Binding Assay)
# Settings: 5 nM LRRK2, 10 nM tracer 236, 2 nM EU-Anti-GST antibody, 1 h at RT; read-out: LRRK2 Activities: IC50
# Method: In the assay LanthaScreen™ Eu Kinase Binding Assay by Invitrogen Corporation (Carlsbad) the effect of invention of a compound on the phosphorylation is determined by measurement of fluorescence intensity emission ratio based on the binding and displacement of a proprietary, Alexa Fluor® 647-labeled, ATP-competitive kinase inhibitor scaffold (kinase tracer) to the kinase of interest. Binding of the tracer to the kinase is detected using a europium-labeled anti-tag antibody, which binds to the kinase of interest. Simultaneous binding of both the tracer and antibody to the kinase results in a high degree of FRET (fluorescence resonance energy transfer) from the europium (Eu) donor fluorophore to the Alexa Fluor® 647 acceptor fluorophore on the kinase tracer. Binding of an inhibitor to the kinase competes for binding with the tracer, resulting in a loss of FRET. The fluorescence intensity ratio is directly proportional to the amount of peptide phosphorylation.
# To the wells of an 384 well small volume plate (Greiner, Frickenhausen) are added (i) the compound under test in 5% DMSO/distilled water (5 μl), (ii) 5 μl of the kinase antibody mixture resulting in a final concentration 5 nM LRRK2 or their mutants, 2 nM EU-Anti-GST antibody in 1× kinase buffer A. The reaction was started with addition of (iii) 5 μl resulting in a final concentration of 10 nM tracer 236. The assay plate was incubated at RT for 1 h and fluorescence intensity readings were collected using a TECAN M1000 at two wavelengths of λex 340/λem 615 nm and λex 340/λem 665 nm with a delay time of 100 μs and an integration time of 200 μs after 60 minutes. The emission ratio was calculated by division of the acceptor/tracer emission ([…]) by the antibody/donor emission ([…]). The inhibitor concentration was plotted versus the emission ratio to determine the IC50 using XLFit 5.0 (IDBS, Guildford) to fit to a sigmoidal dose response curve with a variable slope.
# Chain of LRRK2 (Q5S007 970-2527 limits assumed): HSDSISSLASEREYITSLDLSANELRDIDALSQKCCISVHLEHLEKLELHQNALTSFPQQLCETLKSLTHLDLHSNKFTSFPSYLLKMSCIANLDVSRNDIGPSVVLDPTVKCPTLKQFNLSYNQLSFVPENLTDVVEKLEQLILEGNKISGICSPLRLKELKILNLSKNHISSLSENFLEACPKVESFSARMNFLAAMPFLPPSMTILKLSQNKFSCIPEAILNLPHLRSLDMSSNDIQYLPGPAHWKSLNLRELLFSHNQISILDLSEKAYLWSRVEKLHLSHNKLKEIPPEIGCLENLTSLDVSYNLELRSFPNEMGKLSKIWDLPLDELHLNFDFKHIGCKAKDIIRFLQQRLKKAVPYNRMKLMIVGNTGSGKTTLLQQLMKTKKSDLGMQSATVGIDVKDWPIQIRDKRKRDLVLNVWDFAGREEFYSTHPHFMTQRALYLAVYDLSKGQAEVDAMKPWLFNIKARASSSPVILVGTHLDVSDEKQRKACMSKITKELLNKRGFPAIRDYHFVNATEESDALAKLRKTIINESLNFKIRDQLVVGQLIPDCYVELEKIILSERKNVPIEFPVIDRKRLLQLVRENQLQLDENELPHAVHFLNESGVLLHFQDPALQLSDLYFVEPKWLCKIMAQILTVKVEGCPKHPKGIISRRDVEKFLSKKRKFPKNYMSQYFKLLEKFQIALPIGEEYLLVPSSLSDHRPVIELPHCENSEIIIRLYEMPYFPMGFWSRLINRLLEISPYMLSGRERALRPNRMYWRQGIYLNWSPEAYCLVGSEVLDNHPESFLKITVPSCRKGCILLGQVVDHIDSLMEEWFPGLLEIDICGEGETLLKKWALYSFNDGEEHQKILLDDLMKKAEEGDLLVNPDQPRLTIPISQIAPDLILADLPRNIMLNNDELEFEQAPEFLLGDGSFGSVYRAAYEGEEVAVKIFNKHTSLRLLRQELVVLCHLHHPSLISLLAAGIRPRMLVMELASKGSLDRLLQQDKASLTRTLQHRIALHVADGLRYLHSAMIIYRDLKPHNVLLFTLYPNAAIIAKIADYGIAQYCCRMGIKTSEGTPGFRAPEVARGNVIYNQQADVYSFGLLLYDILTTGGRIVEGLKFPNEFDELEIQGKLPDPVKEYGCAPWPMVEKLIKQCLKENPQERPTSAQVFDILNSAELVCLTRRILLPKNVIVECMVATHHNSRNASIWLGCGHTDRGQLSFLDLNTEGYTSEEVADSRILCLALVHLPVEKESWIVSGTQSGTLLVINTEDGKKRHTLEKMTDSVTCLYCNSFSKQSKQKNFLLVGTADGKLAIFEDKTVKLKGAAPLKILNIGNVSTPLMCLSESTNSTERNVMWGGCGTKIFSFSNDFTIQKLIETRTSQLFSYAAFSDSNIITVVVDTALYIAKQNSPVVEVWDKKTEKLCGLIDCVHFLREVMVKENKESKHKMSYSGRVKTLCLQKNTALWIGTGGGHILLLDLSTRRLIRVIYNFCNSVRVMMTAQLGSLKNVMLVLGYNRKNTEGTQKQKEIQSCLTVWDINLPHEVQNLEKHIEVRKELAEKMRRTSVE
row,IC50 [µM],Compound
1,0.1 to 1,"Fc1cc(Nc2nc3cccc(F)c3c3cn[nH]c23)ccc1N1CCOCC1 [Example 2, 9-fluoro-N-(3-fluoro-4-morpholinophenyl)-3H-pyrazolo[3,4-c]quinolin-4-amine]"
2,0.1 to 1,"COc1ccc2nc(Nc3ccc(F)c(S(C)(=O)=O)c3)c3n[nH]cc3c2c1 [Example 4, N-(4-fluoro-3-(methylsulfonyl)phenyl)-8-methoxy-2H-pyrazolo[3,4-c]quinolin-4-amine]"
3,0.1 to 1,"COc1ccc2nc(Nc3cccc(CN(C)C)c3)c3n[nH]cc3c2c1 [Example 5, N-(3-((dimethylamino)methyl)phenyl)-8-methoxy-2H-pyrazolo[3,4-c]quinolin-4-amine]"
4,0.1 to 1,"COc1ccc2nc(Nc3cccc(C(=O)N4CCOCC4)c3)c3n[nH]cc3c2c1 [Example 7, (3-((8-methoxy-2H-pyrazolo[3,4-c]quinolin-4-yl)amino)phenyl)(morpholino)methanone]"
5,0.01 to 0.1,"Fc1cccc2nc(Nc3ccc(N4CCOCC4)cc3)c3[nH]ncc3c12 [Example 9, 9-fluoro-N-(4-morpholinophenyl)-3H-pyrazolo[3,4-c]quinolin-4-amine]"
6,0.1 to 1,"Fc1cccc2nc(Nc3ccc(N4CCOCC4)nc3)c3[nH]ncc3c12 [Example 11, 9-fluoro-N-(6-morpholinopyridin-3-yl)-3H-pyrazolo[3,4-c]quinolin-4-amine]"
7,0.1 to 1,"COc1ccc2nc(Nc3ccc4c(c3)S(=O)(=O)CC4)c3n[nH]cc3c2c1 [Example 12, 6-((8-methoxy-2H-pyrazolo[3,4-c]quinolin-4-yl)amino)-2,3-dihydrobenzo[b]thiophene 1,1-dioxide]"
8,0.1 to 1,"COc1ccc2nc(Nc3ccc4c(c3)S(=O)(=O)C=C4)c3n[nH]cc3c2c1 [Example 13, 6-((8-methoxy-2H-pyrazolo[3,4-c]quinolin-4-yl)amino)benzo[b]thiophene 1,1-dioxide]"
9,0.01 to 0.1,"COc1cccc2nc(Nc3ccc(C(=O)N4CCOCC4)cc3)c3[nH]ncc3c12 [Example 14, (4-((9-methoxy-3H-pyrazolo[3,4-c]quinolin-4-yl)amino)phenyl)(morpholino)methanone]"
10,0.01 to 0.1,"COc1cccc2nc(Nc3ccc(CN4CCOCC4)cc3)c3[nH]ncc3c12 [Example 15, 9-methoxy-N-(4-(morpholinomethyl)phenyl)-3H-pyrazolo[3,4-c]quinolin-4-amine]"
11,0.01 to 0.1,"COc1cc(Nc2nc3cccc(OC)c3c3cn[nH]c23)ccc1N1CCOCC1 [Example 16, 9-methoxy-N-(3-methoxy-4-morpholinophenyl)-3H-pyrazolo[3,4-c]quinolin-4-amine]"
12,0.01 to 0.1,"COc1cccc2nc(Nc3ccc(N4CCOCC4)nc3)c3[nH]ncc3c12 [Example 17, 9-methoxy-N-(6-morpholinopyridin-3-yl)-3H-pyrazolo[3,4-c]quinolin-4-amine]"
13,0.01 to 0.1,"COc1cccc2nc(Nc3ccc4c(c3)COC4)c3[nH]ncc3c12 [Example 18, N-(1,3-dihydroisobenzofuran-5-yl)-9-methoxy-3H-pyrazolo[3,4-c]quinolin-4-amine]"
14,0.01 to 0.1,"COc1cccc2nc(Nc3ccc4c(c3)S(=O)(=O)CC4)c3[nH]ncc3c12 [Example 19, 6-((9-methoxy-3H-pyrazolo[3,4-c]quinolin-4-yl)amino)-2,3-dihydrobenzo[b]thiophene 1,1-dioxide]"
15,0.01 to 0.1,"COc1cccc2nc(Nc3ccc4c(c3)S(=O)(=O)C=C4)c3[nH]ncc3c12 [Example 20, 6-((9-methoxy-3H-pyrazolo[3,4-c]quinolin-4-yl)amino)benzo[b]thiophene 1,1-dioxide]"
16,0.1 to 1,"COc1ccc2nc(Nc3cccc(CN4CCOCC4)c3)c3n[nH]cc3c2c1 [Example 23, 8-methoxy-N-(3-(morpholinomethyl)phenyl)-2H-pyrazolo[3,4-c]quinolin-4-amine]"
17,0.1 to 1,"COc1ccc2nc(Nc3cccc(C(C)(C)C#N)c3)c3n[nH]cc3c2c1 [Example 24, 2-(3-((8-methoxy-2H-pyrazolo[3,4-c]quinolin-4-yl)amino)phenyl)-2-methylpropanenitrile]"
18,0.1 to 1,"COc1ccc2nc(Nc3ccc(N4CCOC4=O)cc3)c3n[nH]cc3c2c1 [Example 25, 3-(4-((8-methoxy-2H-pyrazolo[3,4-c]quinolin-4-yl)amino)phenyl)oxazolidin-2-one]"
19,0.01 to 0.1,"COc1cccc2nc(Nc3cc(C4CC4)[nH]n3)c3n[nH]cc3c12 [Example 26, N-(5-cyclopropyl-1H-pyrazol-3-yl)-9-methoxy-3H-pyrazolo[3,4-c]quinolin-4-amine]"

row,IC50 [µM],Compound
1,0.01 to 0.1,"COc1cccc2nc(Nc3ccc(N4CCOCC4)c(F)c3)c3[nH]ncc3c12 [Example 27, N-(3-fluoro-4-morpholinophenyl)-9-methoxy-3H-pyrazolo[3,4-c]quinolin-4-amine]"
2,0.1 to 1,"COc1cccc2nc(Nc3cccc(CN(C)C)c3)c3[nH]ncc3c12 [Example 28, N-(3-((dimethylamino)methyl)phenyl)-9-methoxy-3H-pyrazolo[3,4-c]quinolin-4-amine]"
3,0.1 to 1,"O=C(c1ccc(Nc2nc3cccc(F)c3c3cn[nH]c23)cc1)N1CCOCC1 [Example 29, (4-((9-fluoro-3H-pyrazolo[3,4-c]quinolin-4-yl)amino)phenyl)(morpholino)methanone]"
4,0.1 to 1,"Fc1cccc2nc(Nc3ccc(CN4CCOCC4)cc3)c3[nH]ncc3c12 [Example 30, 9-fluoro-N-(4-(morpholinomethyl)phenyl)-3H-pyrazolo[3,4-c]quinolin-4-amine]"
5,0.1 to 1,"COc1cc(Nc2nc3cccc(F)c3c3cn[nH]c23)ccc1N1CCOCC1 [Example 31, 9-fluoro-N-(3-methoxy-4-morpholinophenyl)-3H-pyrazolo[3,4-c]quinolin-4-amine]"
6,0.01 to 0.1,"COc1cccc2nc(Nc3ccc(F)c(S(C)(=O)=O)c3)c3[nH]ncc3c12 [Example 32, N-(4-fluoro-3-(methylsulfonyl)phenyl)-9-methoxy-3H-pyrazolo[3,4-c]quinolin-4-amine]"
7,0.1 to 1,"COc1cccc2nc(Nc3cccc(C(C)(C)C#N)c3)c3[nH]ncc3c12 [Example 33, 2-(3-((9-methoxy-3H-pyrazolo[3,4-c]quinolin-4-yl)amino)phenyl)-2-methylpropanenitrile]"
8,0.01 to 0.1,"COc1ccc2nc(Nc3ccc(C(=O)N4CCOCC4)c(F)c3)c3n[nH]cc3c2c1 [Example 34, (2-fluoro-4-((8-methoxy-2H-pyrazolo[3,4-c]quinolin-4-yl)amino)phenyl)(morpholino)methanone]"
9,0.1 to 1,"COc1ccc2nc(Nc3ccc(C(=O)N4CCOCC4)c([N+](=O)[O-])c3)c3n[nH]cc3c2c1 [Example 35, (4-((8-methoxy-2H-pyrazolo[3,4-c]quinolin-4-yl)amino)-2-nitrophenyl)(morpholino)methanone]"
10,0.1 to 1,"COc1ccc2nc(Nc3ccc(-c4ncco4)cc3)c3n[nH]cc3c2c1 [Example 36, 8-methoxy-N-(4-(oxazol-2-yl)phenyl)-2H-pyrazolo[3,4-c]quinolin-4-amine]"
11,< 0.01,"COc1ccc2nc(Nc3ccc(-c4cnco4)cc3)c3n[nH]cc3c2c1 [Example 37, 8-methoxy-N-(4-(oxazol-5-yl)phenyl)-2H-pyrazolo[3,4-c]quinolin-4-amine]"
12,0.01 to 0.1,"COc1cccc2nc(Nc3ccc(N4CCN(C(C)(C)C)CC4)cc3)c3[nH]ncc3c12 [Example 38, N-(4-(4-(tert-butyl)piperazin-1-yl)phenyl)-9-methoxy-3H-pyrazolo[3,4-c]quinolin-4-amine]"
13,0.01 to 0.1,"COc1cccc2nc(Nc3ccc(C(=O)N4CCC(N5CCN(C)CC5)CC4)cc3)c3[nH]ncc3c12 [Example 39, (4-((9-methoxy-3H-pyrazolo[3,4-c]quinolin-4-yl)amino)phenyl)(4-(4-methylpiperazin-1-yl)piperidin-1-yl)methanone]"
14,< 0.01,"COc1cccc2nc(Nc3ccc(N4CCOC4=O)cc3)c3n[nH]cc3c12 [Example 40, 3-(4-((9-methoxy-2H-pyrazolo[3,4-c]quinolin-4-yl)amino)phenyl)oxazolidin-2-one]"
15,0.01 to 0.1,"CSc1ccc2nc(Nc3ccc(N4CCOCC4)cc3)c3[nH]ncc3c2c1 [Example 43, 8-(methylthio)-N-(4-morpholinophenyl)-3H-pyrazolo[3,4-c]quinolin-4-amine]"
16,0.01 to 0.1,"CSc1ccc2nc(Nc3cccc(S(C)(=O)=O)c3)c3[nH]ncc3c2c1 [Example 44, N-(3-(methylsulfonyl)phenyl)-8-(methylthio)-3H-pyrazolo[3,4-c]quinolin-4-amine]"
17,0.1 to 1,"COc1ccc(Nc2nc3ccc(SC)cc3c3cn[nH]c23)cc1OC [Example 45, N-(3,4-dimethoxyphenyl)-8-(methylthio)-3H-pyrazolo[3,4-c]quinolin-4-amine]"
18,0.1 to 1,"Fc1cccc2c1nc(Nc1ccc(N3CCOCC3)cc1)c1[nH]ncc12 [Example 50, 6-fluoro-N-(4-morpholinophenyl)-3H-pyrazolo[3,4-c]quinolin-4-amine]"
